The values that follow are results of earlier work, collected in US6531488B1, “Method of treating neurodegenerative diseases” (Merck & Co., Inc., priority 1998, dated 2003).

The test system of the data set is patients with Alzheimer's disease. Conditions: ARICEPT administered alone; patients diagnosed by NINCDS and DMS III-R criteria; assessed with ADAS-cog and CIBIC.

Structures are written as SMILES. Counter-ions that a name gives are not always drawn.

Consider `COc1cc2c(cc1OC)C(=O)C(CC1CCN(Cc3ccccc3)CC1)C2` (racemic) [ARICEPT, (±)-2,3-dihydro-5,6-diomethoxy-2-[[1-(phenylmethyl)-4-piperidinyl]methyl]-1H-indene-1-one hydrochloride], for which the “effectiveness for the treatment of the symptoms of Alzheimer's disease” value is “effective”.
